Measured values: patent US5332734A, “Oxazinone derivative” (Japan Tobacco, Incorporated, priority 1991, dated 1994)

Columns and labels:
Type in all cases: biochemical
[1] = molecular target: T1, human leukocyte elastase (HLE) (Homo sapiens, UniProt P08246); test: HLE inhibitory activity; settings: HLE 5.63 nM, substrate 0.2625 mM, pH 8.6, 37° C.
T1 construct: applying a density gradient centrifugal operation so as to obtain neutrophils; from tissue; host or cells: neutrophils from human venous blood
T1 sequence (P08246 30-267): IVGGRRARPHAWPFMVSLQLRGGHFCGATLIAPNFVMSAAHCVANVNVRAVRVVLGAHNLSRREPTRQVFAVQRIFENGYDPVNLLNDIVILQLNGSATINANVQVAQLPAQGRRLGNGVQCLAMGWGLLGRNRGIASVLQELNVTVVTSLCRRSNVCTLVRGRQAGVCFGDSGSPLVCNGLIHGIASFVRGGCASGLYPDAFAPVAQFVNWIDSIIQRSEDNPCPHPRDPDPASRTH
Procedure: (§1) Inhibotory activities of the oxadinone derivative of the present invention against human leukocyte elastase (HLE), human sputum elastase (HSE), human cathepsin G (HCG), bovine pancreatic α-chymotrypsin (CYT) and bovine pancreatic trypsin (TRY) were measured as follows:
(1) Measurement of HLE Inhibitory Activity
A buffy coat was obtained by subjecting human vein blood to centrifugal separation, followed by adding distilled water to the buffy coat thus obtained for performing a low tension treatment so as to collapse erythrocytes. A mixture consisting of 10 parts of a 33.4% Conrey 400 solution and 24 parts of 9% of Ficoll solution was added to the residual blood cell component, followed by applying a density gradient centrifugal operation so as to obtain neutrophils. The neutrophil fraction was washed three times with Hanks' buffer so as to recover cells, which were frozen at -80° C. for preservation until the cells were used. The cells preserved under a frozen state were thawed with warm water of 37° C. and suspended in the lysis buffer (0.1M Tris-HCl pH 7.5, 1M MgCl2, 0.1% Brij 35), the amount of the buffer being 9 times as much as that of the cells. Then, the suspended cells were collapsed with polotron while cooling the suspension with ice. Then, the suspension was subjected to a centrifugal separation at 100,000×g for one hour so as to remove the precipitate. Also, a buffer (5 mM Tris-HCl pH 7.5, 1M NaCl, 1.1% Brij 35) was added to the supernatant in an amount twice as much as the supernatant so as to prepare a crude solution of an enzyme extract. The crude solution of an enzyme extract was adsorbed on an aprotinin affinity column. Further, the active fraction eluted with a 50 ml glycine-HCl solution (pH 3.3, 1M NaCl, 0.1% Brij 35) was passed through a MONO S ion-exchange chromatography. The active fraction eluted with a 2M NaCl linear gradient was dialyzed and, then, subjected to a freeze-drying so as to prepare an enzyme sample.
A test compound to be detected was dissolved in DMSO (for fluorometry) so as to prepare solutions of various concentrations. Then, the solution of 0.2M Tris-HCl (pH 9.6) was added to each of the solutions in an amount twice as much as the solution so as to prepare a test solution. On the other hand, a synthetic substrate (MeOSuc-Ala-Pro-Val-pNA; FUNAKOSHI) was dissolved in DMSO, followed by adding 0.2M tris-HCl solution (pH 8.6) to the solution in an amount twice as much as the solution so as to prepare a substrate solution.
A microplate (NUNK) provided with 96 wells was used for the reaction. The reaction was repeatedly carried out 6 times for each concentration of the test compound. Each of 140 μl of the enzyme solution (0.2M Tris-HCl, pH 8.6), 30 μl of the test material solution and 30 μl of the substrate solution was pre-incubated for 10 minutes at 37° C. for each well of the microplate. After incubation of a mixture of the enzyme solution and the test material solution for 10 minutes, the substrate solution was added so as to carry out the enzyme reaction. For determining the substrate decomposition, the absorbance (405 run) of the released pNA was measured by a microplate reader (MTP-100; CORONA), and the substrate decomposition was calculated on the basis of the average value of the absorbances repeatedly measured 6 times. The inhibitory concentration of the test compound relative to the decomposition amount of the substrate in the case where the test compound was not added was obtained as IC50 value.

[2] = molecular target: T2, bovine pancreatic α-chymotrypsin (CYT) (Bos taurus, UniProt P00766); test: CYT inhibitory activity; settings: CYT 3.4 nM, substrate 0.273 mM, pH 8.0
T2 construct: purchased Sigma Inc; host or cells: bovine pancreas (by its name)
Procedure: as §1
(4) Measurement of CYT Inhibitory Activity
a) Enzyme Preparing Method Bought from Sigma Inc.
(§2) Employed was a measuring method similar to that described previously in conjunction with the measurement of the HLE inhibiting activity, except that used was a buffer solution of pH 8.0. The final concentrations of CYT and the synthetic substrate (Ac-Ala-Ala-Pro-Phe-pNA; FUNAKOSHI) in the solution of the enzyme reaction were 3.4 nM and 0.273 mM, respectively.

[3] = molecular target: T3, human cathepsin G (HCG) (Homo sapiens, UniProt P08311); test: HCG inhibitory activity; settings: HCG 50 nM, substrate 0.5 mM, pH 7.5
T3 construct: purchased Cosmo Bio Inc
T3 sequence (P08311 21-255): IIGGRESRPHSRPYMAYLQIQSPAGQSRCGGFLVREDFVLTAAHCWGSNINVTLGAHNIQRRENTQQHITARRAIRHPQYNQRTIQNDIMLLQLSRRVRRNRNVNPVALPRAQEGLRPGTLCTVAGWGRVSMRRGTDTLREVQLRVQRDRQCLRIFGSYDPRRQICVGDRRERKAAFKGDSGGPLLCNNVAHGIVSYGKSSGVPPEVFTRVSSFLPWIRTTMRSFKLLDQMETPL
Procedure: as §1
(3) Measurement of HCG Inhibitory Activity
a) Enzyme Preparing Method Bought from Cosmo Bio Inc.
as §2, with “7.5.” for “8.0.”, “HCG” for “CYT”, “50” for “3.4”, “0.5” for “0.273”

| Structure (SMILES) | IC50 [1] [µM] | IC50 [2] [µM] | IC50 [3] [µM] |
| --- | --- | --- | --- |
| Cc1cccc2nc([C@@H](NC(=O)C=C3c4ccccc4-c4ccccc43)C(C)C)oc(=O)c12 [Compound 6, 2-{1(S)-[(fluorene-Δ^9, ^α -acetyl)amino]-2-methylpropyl}-5-methyl-4H-3,1-benzoxazin-4-one] | 0.64 | – | – |
| CC(=O)N(CCC(=O)N[C@H](c1nc2cccc(C)c2c(=O)o1)C(C)C)C1c2ccccc2-c2ccccc21 [Compound 5, 2-[1(S)-[[N-acetyl-N-(9-fluorenyl)-β-alanyl]amino]-2-methylpropyl]-5-methyl-4H-3,1-benzoxazin-4-one] | 0.24 | 1.96 | > 12.3 |
| Cc1cccc2nc([C@@H](NC(=O)COC3c4ccccc4-c4ccccc43)C(C)C)oc(=O)c12 [Compound 3, 2-{1(S)-[(9-fluorenyloxyacetyl)amino]-2-methylpropyl}-5-methyl-4H-3,1-benzoxazin-4-one] | 0.51 | 3.43 | > 27.5 |
| Cc1cccc2nc(C(C)(C)NC(=O)COC3c4ccccc4-c4ccccc43)oc(=O)c12 [Compound 8, 2-{1-[(9-fluorenyloxyacetyl)amino]-1-methylethyl}-5-methyl-4H-3,1-benzoxazin-4-one] | 1 | – | – |
| Cc1cccc2nc([C@@H](NC(=O)CNC(=O)C3c4ccccc4-c4ccccc43)C(C)C)oc(=O)c12 [Compound 4, 2-[1(S)-[[N-(9-fluorenylcarbonyl)glycyl]amino]-2-methylpropyl]-5-methyl-4H-3,1-benzoxazin-4-one] | 0.75 | 6.58 | 11.3 |
| Cc1cccc2nc(CNC(=O)COC3c4ccccc4-c4ccccc43)oc(=O)c12 [Compound 7, 2-[(9-fluorenyloxyacetyl)aminomethyl]-5-methyl-4H-3,1-benzoxazin-4-one] | 1.28 | > 7.59 | > 7.59 |
